These results are taken from patent US20250027085A1, “COMPOSITIONS AND METHODS FOR TREATING ALZHEIMER'S DISEASE UTILIZING A TRANSCRIPTIONAL MASTER REGULATOR OF THE RETROMER COMPLEX” (THE TRUSTEES OF COLUMBIA UNIVERSITY IN THE CITY OF NEW YORK, priority 2022, published 2025).

In one assay the test system is rat hippocampal neurons. Put plainly: Cell death assay (TUNEL) after axonal Aβ1-42/Aβ42 treatment in microfluidic chambers. In kind it is cell-based. As to conditions: Aβ oligomers 36 hours, nelfinavir in the last 24 hours, 10/15 μM nelfinavir. The procedure: (§1) Hippocampi were dissected from embryonic day (E) 16-18 rat embryos obtained from pregnant Sprague-Dawley dams (Envigo). All animal procedures were approved by the Institutional Animal Care and Use Committee at Columbia University. Cell dissociation was performed using TripLE Express. Neurons (50,000-60,000 per microfluidic chamber) were plated on 0.1 mg ml^-1 poly-D-lysine (Millipore Sigma) and 2 μg ml^-1 laminin (Bio-Techne) coated substrates and grown in Neurobasal supplemented with 10% fetal bovine serum, 2 mM L-glutamine, 1 mM sodium pyruvate, and antibiotics (50 U ml^-1 penicillin-streptomycin). Tripartite microfluidic chambers were produced with Dow Corning Sylgard 184 Silicone Encapsulant Clear Kit (10:1 mix ratio; Ellsworth Adhesives) cured at […] for at least 4 hours following published protocols (Park et al. 2006; Desai et al. 2009). Chamber design incorporated two sets of 200-μm-long microgroove barriers to exclude crossing of cell bodies and dendrites (Taylor et al. 2005; […] et al. 2009). After 24 hours, medium was changed to Neurobasal containing 1×B27 and 2 mM L-glutamine. Subsequent medium changes (half volumes) were performed at DIV4 and thereafter every 3-5 days. To prevent glial cell proliferation, medium changes included 5-flurodeoxyuridine and uridine (final concentration […]; Millipore Sigma) after DIV4. […]

Assay [1] has as its system CREB3L2-ATF4 heterodimers. Nature of the assay: Proximity ligation assay (PLA) of axonal CREB3L2-ATF4 heterodimers. In kind it is cell-based, rat. The note with it: axons treated with Aβ oligomers for 36 hours plus nelfinavir. How it is done: as §1

Consider `Cc1c(O)cccc1C(=O)N[C@@H](CSc1ccccc1)[C@H](O)CN1C[C@H]2CCCC[C@H]2C[C@H]1C(=O)NC(C)(C)C` [nelfinavir], for which, in the assay with rat hippocampal neurons, the “retrograde degeneration response (TUNEL) triggered by local Aβ1-42/Aβ42 stimuli” value is listed as “completely rescued”. The “CREB3L2-ATF4 complexes/heterodimers in axons (PLA)” value in assay [1] is on record as “caused the accumulation”.
